In BindingDB's records for doi:10.1021/jm060595u (University of Bristol, 2006):

Assay: Displacement of [3H]Cl-DPDPE from delta receptor in guinea pig brain homogenate

| SMILES | Ki |
| --- | --- |
| COc1ccc2c3c1O[C@H]1C(=O)CC[C@@]4(NCCCc5ccc(Cl)cc5)[C@@H](C2)N(CC2CC2)CC[C@]314 [N-cyclopropylmethyl-14beta-[3'-(4'-chlorophenyl)propylamino]-7,8-dihydronorcodeinone] | 31 nM |
| O=C(CCc1ccc(Cl)cc1)N[C@@]12CCC(=O)[C@@H]3Oc4c(O)ccc5c4[C@@]31CCN(CC1CC1)[C@@H]2C5 [N-cyclopropylmethyl-14beta-[3'-(4'-chlorophenyl)propanamido]-7,8-dihydronormorphinone] | 0.6 nM |
| O=C1CC[C@@]2(NCCCc3ccc(Cl)cc3)[C@H]3Cc4ccc(O)c5c4[C@@]2(CCN3CC2CC2)[C@H]1O5 [N-cyclopropylmethyl-14beta-[3'-(4'-chlorophenyl)propylamino]-7,8-dihydronormorphinone] | 1.1 nM |
| COc1ccc2c3c1O[C@H]1C(=O)CC[C@@]4(NC(=O)CCc5ccc(Cl)cc5)[C@@H](C2)N(CC2CC2)CC[C@]314 [N-cyclopropylmethyl-14beta-[3'-(4'-chlorophenyl)propanamido]-7,8-dihydronorcodeinone] | 5.1 nM |
